Laboratory results reported in article PMC10544575, “Inhibitory mechanism of vortioxetine on CYP450 enzymes in human and rat liver microsomes” (Frontiers in Pharmacology, 2023).
Entries after “also recorded” stand apart in the source; their conditions may differ. Read-outs that look alike come from different tables or passages of the source.

Columns and labels:
Assay type in all cases: in vitro ADME
CYP2D6 [1] = target: T1, CYP2D6 (Homo sapiens, UniProt P10635); test: Reversible inhibition kinetics (Lineweaver-Burk), CYP2D6 in HLMs; set-up: 0.20 mg/mL HLMs; from tissue; host or cells: human liver microsomes; settings: dextromethorphan
Procedure: (§1) The components of the incubation system were as follows: 0.20 mg/mL HLMs or 0.20 mg/mL RLMs, 0.1 M Tris-HCl, vortioxetine, and the probe substrates of each enzyme. In the study of Km’s (Michaelis–Menten constant) experiment, midazolam (1, 2, 5, 10, 20, 50 and 100 μM in HLMs and RLMs) corresponded to CYP3A4/3A; bupropion (10, 20, 50, 100, 200, 500, 1,000 and 2000 μM in HLMs; 1, 2, 5, 10, 20, 50, 100 and 200 μM in RLMs) corresponded to CYP2B6/2B; amodiaquine (5, 10, 20, 50, 100 and 200 μM in HLMs; 10, 20, 50, 100, 200, 500 μM in RLMs) corresponded to CYP2C8/CYP2C-1; losartan (1, 2, 5, 10, 20, 50, 100, 200 μM in HLMs; 10, 20, 50, 100, 200, 500 and 1,000 μM in RLMs) corresponded to CYP2C9/CYP2C-2; mephenytoin (20, 50, 100, 200, 500 and 1,000 μM in HLMs; 5, 10, 20, 50, 100, 200, 500 and 1,000 μM in RLMs) corresponded to CYP2C19/CYP2C-3; and dextromethorphan (1, 2, 5, 10, 20, 50 and 100 μM in HLMs and RLMs) corresponded to CYP2D6/CYP2D. […]
(§2) All experiments results were detected by UPLC-MS/MS, which equipped with a Waters Acquity UPLC system (Milford, MA, United States) and a Waters Xevo TQ-S triple quadrupole tandem mass spectrometer with an electrospray ionization source (Milford, MA, United States). […]
(§3) IC50 values and enzyme kinetic parameters were calculated by Graphpad Prism 6.0 (GraphPad software Inc., CA, United States). […] Data for each experiment were expressed as mean ± SD (n = 3).

CYP2D6 [2] = target: T1, CYP2D6; test: IC50 of vortioxetine on CYP2D6 (dextromethorphan) in HLMs; set-up: 0.20 mg/mL HLMs; from tissue; host or cells: human liver microsomes
Procedure: as §1, §2, §3

CYP2B = test: IC50 of vortioxetine on CYP2B (bupropion) in RLMs; settings: rat, rat liver microsomes, probe bupropion
Procedure: as §1, §2, §3

CYP2B6 = target: T2, CYP2B6 (Homo sapiens, UniProt P20813); test: Reversible inhibition kinetics (Lineweaver-Burk), CYP2B6 in HLMs; set-up: 0.20 mg/mL HLMs; from tissue; host or cells: human liver microsomes; settings: bupropion
T2 sequence (P20813 1-491): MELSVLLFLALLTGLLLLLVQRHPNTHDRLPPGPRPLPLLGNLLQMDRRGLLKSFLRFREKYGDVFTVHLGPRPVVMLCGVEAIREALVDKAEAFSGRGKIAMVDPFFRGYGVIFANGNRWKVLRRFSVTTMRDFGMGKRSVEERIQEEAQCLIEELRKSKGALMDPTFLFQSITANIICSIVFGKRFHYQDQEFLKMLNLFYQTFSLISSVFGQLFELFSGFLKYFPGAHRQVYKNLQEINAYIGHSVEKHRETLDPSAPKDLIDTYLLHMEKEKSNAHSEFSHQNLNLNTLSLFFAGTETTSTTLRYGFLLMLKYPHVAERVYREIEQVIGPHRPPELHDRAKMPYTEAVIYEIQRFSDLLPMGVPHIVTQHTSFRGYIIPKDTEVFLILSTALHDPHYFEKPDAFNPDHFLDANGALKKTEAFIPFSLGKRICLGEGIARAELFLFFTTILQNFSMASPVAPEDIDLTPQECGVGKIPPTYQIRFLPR
Procedure: The components of the incubation system were as follows: 0.20 mg/mL HLMs or 0.20 mg/mL RLMs, 0.1 M Tris-HCl, vortioxetine, and the probe substrates of each enzyme. In the study of Km’s (Michaelis–Menten constant) experiment, midazolam (1, 2, 5, 10, 20, 50 and 100 μM in HLMs and RLMs) corresponded to CYP3A4/3A; bupropion (10, 20, 50, 100, 200, 500, 1,000 and 2000 μM in HLMs; 1, 2, 5, 10, 20, 50, 100 and 200 μM in RLMs) corresponded to CYP2B6/2B; amodiaquine (5, 10, 20, 50, 100 and 200 μM in HLMs; 10, 20, 50, 100, 200, 500 μM in RLMs) corresponded to CYP2C8/CYP2C-1; losartan (1, 2, 5, 10, 20, 50, 100, 200 μM in HLMs; 10, 20, 50, 100, 200, 500 and 1,000 μM in RLMs) corresponded to CYP2C9/CYP2C-2; mephenytoin (20, 50, 100, 200, 500 and 1,000 μM in HLMs; 5, 10, 20, 50, 100, 200, 500 and 1,000 μM in RLMs) corresponded to CYP2C19/CYP2C-3; and dextromethorphan (1, 2, 5, 10, 20, 50 and 100 μM in HLMs and RLMs) corresponded to CYP2D6/CYP2D. After 5.0 min of preincubation in the shaking water bath, the reaction was started with the addition of 1.0 mM NADPH. The incubated temperature at 37°C for 30 min. After the incubation, the enzyme reaction was stopped by cooling at −80°C, and 200 μL of acetonitrile and 20 μL of internal standard diazepam (200 ng/mL) were added for protein precipitation. The solution was fully vortexed and centrifuged at 13,000 × rpm for 10 min, and the supernatant was collected for data analysis by UPLC-MS/MS.
The inhibitory mechanism of the inhibitor on the enzyme was generally used by different concentrations of the inhibitor against different concentrations of the probe substrate. The concentrations of the inhibitor and the concentrations of probe substrates in the experiment were estimated based on IC50 and Km values, respectively.
In HLMs, the concentrations of the substrates midazolam, bupropion, amodiaquine, losartan, mephenytoin, and dextromethorphan were 1, 2, 4, 8 μM; 10, 20, 40, 80 μM; 0.8, 1.5, 3, 6 μM; 2, 4, 8, 16 μM; 20, 45, 90, 180 μM; 2.5, 5, 10, 20 μM, respectively. Corresponding to the concentration of vortioxetine were 2, 4, 9, 18 μM; 2, 4, 8, 16 μM; 4, 8, 15, 30 μM; 5, 10, 25, 50 μM; 0.6, 1.2, 2.5, 5 μM; 4.5, 9, 18, 36 μM, respectively.
as §2, with “States). The chromatographic separation was performed on a Waters ACQUITY UPLC BEH C18 column (2.1 × 50 mm, 1.7 μm, Waters Corp.) at 40°C.” for “States).”
as §3

T1 sequence (P10635 whole entry): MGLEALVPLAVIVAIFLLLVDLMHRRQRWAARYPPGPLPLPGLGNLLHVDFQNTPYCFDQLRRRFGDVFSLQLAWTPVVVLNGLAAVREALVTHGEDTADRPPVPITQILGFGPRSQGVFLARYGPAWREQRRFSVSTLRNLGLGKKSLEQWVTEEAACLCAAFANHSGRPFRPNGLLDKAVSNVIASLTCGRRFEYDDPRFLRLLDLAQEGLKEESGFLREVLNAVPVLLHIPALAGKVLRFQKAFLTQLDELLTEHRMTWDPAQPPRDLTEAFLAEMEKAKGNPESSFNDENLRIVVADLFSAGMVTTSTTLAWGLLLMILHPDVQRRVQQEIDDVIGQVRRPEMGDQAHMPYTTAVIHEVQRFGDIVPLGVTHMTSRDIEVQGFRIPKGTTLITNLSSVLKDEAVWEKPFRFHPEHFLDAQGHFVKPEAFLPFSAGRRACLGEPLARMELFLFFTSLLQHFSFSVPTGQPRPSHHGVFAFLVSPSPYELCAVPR

- Ki (CYP2D6 [1]): 9.37 µM
- IC50 (CYP2D6 [2]; HLMs 0.20 mg/mL, dextromethorphan at Km, 37°C, 30 min, read-out: IC50): 17.9 µM
- IC50 (CYP2D6 [2]; inhibitory effect (strength judged by IC50), HLMs): > 10 µM
- IC50 at 30 min (CYP2B; RLMs 0.20 mg/mL, bupropion at Km, 37°C, 30 min, read-out: IC50): 8.89 µM
- IC50 at 30 min (CYP2B; inhibitory effect (strength judged by IC50), RLMs): 1 to 10 µM
- Ki (CYP2B6): 8.55 µM
- α (CYP2B6): 2.70
- Inhibition type (CYP2B6; Lineweaver-Burk plot): mixed inhibition
- αKi (CYP2B6; secondary plot of y-intercepts): 23.04 µM
SMILES: Cc1ccc(Sc2ccccc2N2CCNCC2)c(C)c1 [vortioxetine]
- Inhibition type (CYP2D6 [1]; Lineweaver-Burk plot): competitively inhibited; also recorded: competitive inhibition
